According to US20230181521A1, “IS[…] ANALOGS OF 5,6-METHYLENEDIOXY-2-AMINOINDANE (MDAI)” (Terran Biosciences, Inc., priority 2021, published 2023):
Structures can show the parent of a compound that is named as a salt.

Tests used:
[1] = Metabolic stability in human liver microsomes; format: in vitro ADME; details: for half-life at 0.25 μM: pH 7.4; for microsomal CLint at 0.25 μM: pH 7.4, read-out: CLint (μL/min/mg protein); for in vitro clearance compared with MDAI HCl salt (reference compound): tested as racemic mixtures
Experimental: Microsomal Assay: Human liver microsomes (20 mg/mL) were obtained. β-nicotinamide adenine dinucleotide phosphate, reduced form (NADPH), magnesium chloride (MgCl2), and dimethyl sulfoxide (DMSO) are purchased from Sigma-Aldrich.
Determination of Metabolic Stability: 7.5 mM stock solutions of test compounds of the above structural formula (e.g., of an embodiment or aspect of embodiment thereof described herein), or pharmaceutically acceptable salt thereof, are prepared in DMSO. […] The diluted microsomes are added to wells of a 96-well deep-well polypropylene plate in triplicate. […] Reactions are initiated by addition of pre-warmed NADPH solution. The final reaction volume is 0.5 mL and contains 4.0 mg/mL human liver microsomes, 0.25 μM test compound, and 2 mM NADPH in 0.1 M potassium phosphate buffer, pH 7.4, and 3 mM MgCl2. The reaction mixtures are incubated at 37° C., and […] aliquots are removed at 0, 5, 10, 20, and 30 minutes and added to shallow-well 96-well plates which contain […] of ice-cold ACN (acetonitrile) with internal standard to stop the reactions. The plates are stored at 4° C. for 20 minutes after which […] of water is added to the wells of the plate before centrifugation to pellet precipitated proteins. Supernatants are transferred to another 96-well plate and analyzed for amounts of parent remaining by LC-MS/MS using an Applied Bio-systems API 4000 mass spectrometer. The same procedure is followed for the non-labeled, such as the non-deuterated counterpart of the compound and the positive control, 7-ethoxycoumarin (1 μM). Testing is done in triplicate.
Data analysis: The in vitro T1/2s for test compounds are calculated from the slopes of the linear regression of % parent remaining (In) vs incubation time relationship.
k=−[slope of linear regression of % parent remaining (In) vs incubation time] The apparent intrinsic clearance is calculated using the following equation: […]
Data analysis is performed using Microsoft Excel Software.

Male Sprague-Dawley rats = experiment: Rat elevated zero maze test (model of anxiety); format: in vivo
Excerpt: The rat zero-maze model is a refined alternative to the plus-maze, the most widely used animal model of anxiety, and consists of an elevated annular platform, divided equally into four quadrants. Two opposite quadrants are enclosed by Perspex walls on both the inner and the outer edges of the platform, while the remaining two opposite quadrants are open being enclosed only by a Perspex “lip”. Animals will show a preference for the closed areas, and avoidance of the open sections is assumed to stem from a rodent's natural aversion to open, exposed spaces. The primary index of anxiety, which reflect changes in open arm preference, is the percentage of time spent on the open areas. A reduction in the amount of activity on the open areas is considered to reflect an increase in anxiety while an increase in time in the open arms is indicative of an anxiolytic effect. Other, ethologically-based behaviors are also assessed as indices of anxiety including total open arm entries, total line crossings, and the frequency of exploratory head dipping over the edge of the platform (HDIPS). • Shepherd, J K; Grewel, SS; Fletcher, A; Bill, DJ; Dourish, C T (1994) Behavioural and pharmacological validation of the elevated “zero-maze” as an animal model of anxiety. Psychopharmacol., 116:56-64.
Male Sprague-Dawley 200-250 g (Envigo UK) rats were used. Animals were group-housed (5 per cage; cage size: 40×40×20 cm) in a temperature-controlled environment (22±2° C.), under a 12 h light-dark cycle (lights on: 08:00 hours) for one week prior to testing. Food and water were freely available. Number of animals per group=5. Animals were moved into the experimental room 16-24 hours before testing.
The elevated 0-maze comprises a black Perspex annular platform (105 cm diameter, 10 cm width) elevated to 65 cm above ground level, divided equally into four quadrants. Two opposite quadrants are enclosed by clear red Perspex walls (27 cm high) on both the inner and outer edges of the platform, while the remaining two opposite quadrants are surrounded only by a Perspex “lip” (1 cm high) which serves as a tactile guide to animals on these open areas.
Subjects were weighed and tail marked before being injected. After a specified pre-treatment time, subjects were placed in a closed quadrant and a 5-min test period were recorded on videotape for subsequent analysis. The maze was cleaned with 5% methanol/water solution and dried thoroughly between test sessions. Behavioural measures comprise percentage time spent on the open areas (% TO). Animals are scored as being in the open area when all four paws were in an open quadrant and in the closed area only when all four paws have passed over the open-closed divide. All testing were carried out between 9.00 and 16.00 hours.
IP: MDAI (HCl salt with 82.94% free base content) was formulated in Vehicle 1 (Saline) for injection to concentrations of […] to provide doses of 0.15, 0.31, 0.625, 1.25 and 2.5 mg/kg when administered ip in 5 mL/kg dosing volumes.
Chlordiazepoxide was formulated in Vehicle 1 (saline) to a concentration of 1.2 mg/mL to provide a dose of 6 mg/kg when administered ip in 5 mL/kg dosing volumes.
35 male Sprague-Dawley rats in treatment groups of 2 or 5, was intraperitoneally dosed with either Vehicle 1 (saline) or MDAI at 1 of 5 dose levels (0.15, 0.31, 0.625, 1.25 and 2.5) or chlordiazepoxide (6 mg/kg) in 5 mL/kg injection volumes. Thirty min later at T=0, rats were individually placed in a closed arm of the zero-maze and behavior assessed by a “blind” observer using remote video monitoring over the subsequent 5 min. The animal was then removed and the maze carefully wiped with 5% methanol/water solution before the next test was begun. Three rats from the vehicle group, 3 rats from the 2.5 mg/kg MDAI group, and 3 rats from the CDP group were tested on a separate day from the other rats.
Data was analysed with Statistica software (Statsoft USA version 10.0). […]

[2] = Double-blind, randomized, placebo-controlled clinical trial of MDAI-assisted psychotherapy in PTSD; format: in vivo
Experimental: A multicenter, randomized, double-blind, placebo-controlled trial is conducted to assess the efficacy and safety of MDAI-assisted psychotherapy versus psychotherapy with placebo control in participants diagnosed with at least moderate post-traumatic stress disorder (PTSD).
This multicenter, randomized, double-blind, placebo-controlled trial is conducted at various sites in the United States with IRB approval from each study site. A flexible dose of MDAI hydrochloride salt or placebo, followed by a supplemental half-dose unless contraindicated by patient's previous response or medical history, is also administered during the Treatment Period with psychotherapy in at least 3 blinded monthly Experimental Sessions. The Supplemental Dose extends the duration of drug effects on the participants during an Experimental Session. An optional Risk Evaluation and Mitigation Strategy (REMS) Protocol may be implemented for MDAI and placebo-groups. The Treatment Period lasts for approximately 12 weeks. During the Treatment Period, each Experimental Session is followed by three Intervening Sessions of non-drug psychotherapy. Each Experimental Session involves an overnight stay. The Primary Outcome measure, the change in Clinician Administered PTSD Scale for DSM-5 (CAPS-5), is determined by a blinded Independent Rater (IR) pool multiple times throughout the study. The study consists of separate periods for each participant. Initially, prospective participants undergo a Screening Period involving an initial eligibility assessment, a medical history intake, informed consent, and enrollment of eligible participants. Next, a Preparation Period is undertaken for enrolled participants involving medication tapering and clinical baseline assessments to confirm each participant meets enrollment criteria. As part of the Preparation Period, a detailed assessment of co-morbidities to PTSD is recorded. Participants may remain on prescribed courses of selective serotonin reuptake inhibitor (SSRI) or serotonin and norepinephrine reuptake inhibitor (SNRI) treatment. Dosages and/or frequency of administration of a prescribed SSRI or SNRI may be adjusted to fit within study parameters. Participants may be required to taper a prescribed course of medication in order to maintain eligibility within the study. The Treatment Period consists of three monthly Experimental Sessions and associated Intervening Sessions of integrative behavioral psychotherapy. The Treatment Period lasts approximately 12 weeks. Following the Treatment Period is a Follow-up Period and Study Conclusion. During the Follow-up Period and Study Conclusion, participants complete 4 weeks with no study visits, followed by a Study Conclusion visit.
This study compares the effects of three blinded Experimental Sessions of psychotherapy in combination with flexible doses of MDAI or placebo administered as described below. Non-drug preparatory and intervening psychotherapy sessions are also included. Patient's weight is determined for dosage calculation. Initial dose is 100 mg unless this will result in a dosage of less than 1.5 mg/kg of patient weight. Initial dose thereby adjusted upward in 50 mg increments to deliver the lowest dose possible of at least 1.5 mg/kg of patient weight. Initial dose for Experimental Session 2 and 3 is cumulative dose calculated by adding the initial dose plus REMS protocol dose used the previous Experimental Session for each patient.
Randomization occurs prior to the initiation of Experimental Session 1. Each participant is provided the next randomized number in a sequence by a blinded study monitor. Participants are then randomized, according to a computer-generated randomization schedule, […] to MDAI or placebo. The randomization schedule is prepared and implemented by an independent statistician. Participants, clinicians, and study teams are blinded to treatment allocation. MDAI treatment groups may be subjected to anxiogenic effects due to underdosing of participants. […]

[3] = cited from earlier work
[4] = Progress in Neuro-Psychopharmacology & Biological Psychiatry 69, 2016, 49-59; cited from earlier work
[5] = at Study Conclusion, vs placebo-treated controls
[6] = 6 mg/kg ip, 30 min before test, vs vehicle

What does the source list for `NC1Cc2cc3c(cc2C1)OCO3` [MDAI, 5,6-Methylenedioxy-2-aminoindane]?
half-life at 0.25 μM [1]: 3.42 h; microsomal CLint at 0.25 μM [1]: 6.78 µL/min/mg; percentage of time in the open arms (% TO) (Male Sprague-Dawley rats; 0.625 mg/kg ip, 30 min before test, vs vehicle or any other dose (FIG. 1)): numerical increase; percentage of time in the open arms (% TO) (Male Sprague-Dawley rats; doses too low or too high (0.15, 0.31, 1.25, 2.5 mg/kg ip)): opposite effect; total open arm entries (Male Sprague-Dawley rats; higher and lower doses (0.15, 0.31, 1.25, 2.5 mg/kg ip), FIG. 2): trended towards an anxiogenic effect; total open arm entries (Male Sprague-Dawley rats; middle dose (0.625 mg/kg ip), FIG. 2): increase vs placebo that trended towards significance; CAPS-5 assessments compared to placebo-treated controls ([2]; Intervening Session 1C, 2C, 3C and Study Conclusion): Significant improvements; CAPS-5 assessment compared to the placebo group ([2]; PTSD participants, at Study Conclusion): significant mean reduction; lessening daytime sleepiness as measured by ESS ([2]; at Study Conclusion): significant improvement; adverse anxiogenic incidents [2, 5]: without a significant increase; clinician-rated functional impairment score as measured by SDS [2, 5]: significant improvement; depression as measured by HAM-D [2, 5]: significant improvement; Oral MDAI dose, drug activity level Threshold [3]: 40 mg; Oral MDAI dose, drug activity level Very Strong [3]: ≥300 mg; toxicity reported associated with MDAI intoxication [4]: serotonin syndrome

With `[2H]C1([2H])Oc2cc3c(cc2O1)C([2H])([2H])C([2H])(N)C3([2H])[2H]` [Compound 2, 2,2,5,5,6,7,7-Heptadeuteriocyclopenta[f][1,3]benzodioxol-6-amine Hydrochloride] as the compound, how does the “half-life and intrinsic clearance compared to MDAI HCl (reference compound)” value [1] read?
The value was “exhibit differences”.

What about the half-life at 0.25 μM [1] of the same compound?
Its half-life at 0.25 μM is 3.83 h.

What about the microsomal CLint at 0.25 μM [1] of the same compound?
Its microsomal CLint at 0.25 μM is 6.04 µL/min/mg.

What does the source list for `CNC1=Nc2ccc(Cl)cc2C(c2ccccc2)=[N+]([O-])C1` [CDP, Chlordiazepoxide]?
frequency of HDIPS (Male Sprague-Dawley rats; [6]): trend towards increased; percentage of time in the open arms (% TO) (Male Sprague-Dawley rats; [6]): significant increase; total line crossings (Male Sprague-Dawley rats; [6]): trend towards increased; total open arm entries (Male Sprague-Dawley rats; [6]): trend towards increased

Which results are given for `[2H]C1([2H])Oc2cc3c(cc2O1)CC(N)C3` [Compound 1, 2,2-Dideuterio-6,7-dihydro-5H-cyclopenta[f][1,3]benzodioxol-6-amine Hydrochloride]?
half-life and intrinsic clearance compared to MDAI HCl (reference compound) [1]: exhibit differences; half-life at 0.25 μM [1]: 3.27 h; microsomal CLint at 0.25 μM [1]: 7.09 µL/min/mg

With `[2H]C1(N)Cc2cc3c(cc2C1([2H])[2H])OCO3` (racemic) [Compound 3, 6,7,7-Trideuterio-5H-cyclopenta[f][1,3]benzodioxol-6-amine hydrochloride] as the compound, how does the half-life at 0.25 μM [1] read?
Its half-life at 0.25 μM is 7.42 h.

What about the microsomal CLint at 0.25 μM [1] of the same compound?
The microsomal CLint at 0.25 μM was 3.12 µL/min/mg.

What about the “in vitro clearance compared with MDAI HCl salt (reference compound)” value [1] of the same compound?
Its value is “significantly lower”.

What does the source list for `[2H]C1([2H])Oc2cc3c(cc2O1)C([2H])([2H])C([2H])(N)C3` (racemic) [Compound 4, 2,2,6,7,7-Pentadeuterio-5H-cyclopenta[f][1,3]benzodioxol-6-amine hydrochloride]?
half-life at 0.25 μM [1]: 7.97 h; microsomal CLint at 0.25 μM [1]: 2.9 µL/min/mg; in vitro clearance compared with MDAI HCl salt (reference compound) [1]: significantly lower

What does the source list for `COc1ccc2c(c1)[C@]13CCCC[C@@H]1[C@H](C2)N(C)CC3` [dextromethorphan]?
half-life at 0.25 μM [1]: 0.433 h; microsomal CLint at 0.25 μM [1]: 53.5 µL/min/mg

With `[2H]C1([2H])c2cc3c(cc2C([2H])([2H])C1([2H])N)OCO3` [Compound 5, 5,5,6,7,7-Pentadeuteriocyclopenta[f][1,3]benzodioxol-6-amine hydrochloride] as the compound, how does the half-life at 0.25 μM [1] read?
The half-life at 0.25 μM was 3.42 h.

What about the microsomal CLint at 0.25 μM [1] of the same compound?
Its microsomal CLint at 0.25 μM is 6.78 µL/min/mg.
